Source: patent publication EP0217101A1, “Substituted diphenyl ethers, process for their preparation and their use as herbicides” (HOECHST AKTIENGESELLSCHAFT, priority 1985, dated 1987)

Legend:
Assay type in all cases: in vivo
Echinochloa crus-galli [1] = test: Weed control pre-emergence (greenhouse pot test); design: key: 0: = ohne Wirkung bzw. Schaden; 1: = 0 - 20 % Wirkung bzw. Schaden; = 20 - 40 % Wirkung bzw. Schaden; 3: = 40 - 60 % Wirkung bzw. Schaden; 4: = 60 - 80 % Wirkung bzw. Schaden; 5: = 80 - 100 % Wirkung bzw. Schaden; conditions: pre-emergence, 2,5 kg a.i./ha, visual rating after 3-4 weeks
From the text: (§1) Die Schädigung der Unkrautpflanzen bzw. die Kulturpflanzenverträglichkeit wurde gemäß einem Schlüssel bonitiert, in dem die Wirksamkeit durch Wertzahlen von 0 - 5 ausgedrückt ist. Dabei bedeutet:
(§2) Samen bzw. Rhizomstücke von mono- und dikotylen Unkrautpflanzen wurden in Plasstiktöpfen (0 = 9 cm) in sandiger Lehmerde ausgelegt und mit Erde abgedeckt. Die in Form von benetzbaren Pulvern oder Emulsionskonzentraten formulierten erfindungsgemäßen Verbindungen wurden dann als wäßrige Suspensionen bzw. Emulsionen mit einer Wasseraufwandmenge von umgerechnet 600-800 1/ha in unterschiedlichen Dosierungen auf die Oberfläche der Abdeckerde appliziert. Nach der Behandlung wurden die Töpfe im Gewächshaus aufgestellt und unter guten Wachstumsbedingungen für die Unkrautpflanzen gehalten (Temperatur 23 plus/minus 1 Grad Celsius, relative Luftfeuchte 60-80 %).
(§3) Die optische Bonitur der Pflanzen- bzw. Auflaufschäden erfolgte nach dem Auflaufen der Versuchspflanzen nach einer Versuchszeit von 3-4 Wochen im Vergleich zu unbehandelten Kontrollen.

Stellaria media [2] = test: Weed control pre-emergence (greenhouse pot test); design: key: 0: = ohne Wirkung bzw. Schaden; 1: = 0 - 20 % Wirkung bzw. Schaden; = 20 - 40 % Wirkung bzw. Schaden; 3: = 40 - 60 % Wirkung bzw. Schaden; 4: = 60 - 80 % Wirkung bzw. Schaden; 5: = 80 - 100 % Wirkung bzw. Schaden; conditions: pre-emergence, 2,5 kg a.i./ha, visual rating after 3-4 weeks
From the text: as §1, §2, §3

Chrysanthemum segetum [3] = test: Weed control post-emergence (greenhouse pot test); conditions: post-emergence (three-leaf stage), 2,5 kg a.i./ha, visual rating after ca. 3-4 weeks
From the text: as §1
(§4) Samen bzw. Rhizomstüeke von mono- und dikotylen Unkräutern wurden in Plasstiktöpfen (φ= 9 cm) in sandigem Lehmboden ausgelegt, mit Erde abgedeckt und im Gewächshaus unter guten Wachstumsbedingungen angezogen. Drei Wochen nach der Aussaat wurden die Versuchspflanzen im Dreiblattstadium behandelt. Die als Spritzpulver bzw. als Eτulsionskonzentrate formulierten erfindungsgemäßen Verbindungen wurden in verschiedenen Dosierungen mit einer Wasseraufwandmenge von umgerechnet 600-800 l/ha auf die grünen Pflanzenteile gesprüht und nach ca. 3-4 Wochen Standzeit der Versuchspflanzen im Gewächshaus unter optimalen Wachstumsbedingungen (Temperatur 23°C +/- 1°C, relative Luftfeuchte 60-80 %) die Wirkung der Präparate optisch im Vergleich zu unbehandelten Kontrollen bonitiert.

Sinapis arvensis [4] = test: Weed control post-emergence (greenhouse pot test); conditions: post-emergence (three-leaf stage), 2,5 kg a.i./ha, visual rating after ca. 3-4 weeks
From the text: as §1, §4

Avena sativa [5] = test: Weed control post-emergence (greenhouse pot test); conditions: post-emergence (three-leaf stage), 2,5 kg a.i./ha, visual rating after ca. 3-4 weeks
From the text: as §1, §4

Chrysanthemum segetum [6] = test: Weed control pre-emergence (greenhouse pot test); conditions: pre-emergence, 2,5 kg a.i./ha, visual rating after 3-4 weeks
From the text: as §1, §2, §3

Sinapis arvensis [7] = test: Weed control pre-emergence (greenhouse pot test); conditions: pre-emergence, 2,5 kg a.i./ha, visual rating after 3-4 weeks
From the text: as §1, §2, §3

Avena sativa [8] = test: Weed control pre-emergence (greenhouse pot test); conditions: pre-emergence, 2,5 kg a.i./ha, visual rating after 3-4 weeks
From the text: as §1, §2, §3

Echinochloa crus-galli [9] = test: Weed control post-emergence (greenhouse pot test); design: key: 0: = ohne Wirkung bzw. Schaden; 1: = 0 - 20 % Wirkung bzw. Schaden; = 20 - 40 % Wirkung bzw. Schaden; 3: = 40 - 60 % Wirkung bzw. Schaden; 4: = 60 - 80 % Wirkung bzw. Schaden; 5: = 80 - 100 % Wirkung bzw. Schaden; conditions: post-emergence (three-leaf stage), 2,5 kg a.i./ha, visual rating after ca. 3-4 weeks
From the text: as §1, §4

Stellaria media [10] = test: Weed control post-emergence (greenhouse pot test); design: key: 0: = ohne Wirkung bzw. Schaden; 1: = 0 - 20 % Wirkung bzw. Schaden; = 20 - 40 % Wirkung bzw. Schaden; 3: = 40 - 60 % Wirkung bzw. Schaden; 4: = 60 - 80 % Wirkung bzw. Schaden; 5: = 80 - 100 % Wirkung bzw. Schaden; conditions: post-emergence (three-leaf stage), 2,5 kg a.i./ha, visual rating after ca. 3-4 weeks
From the text: as §1, §4

Row | SMILES | Herbizide Wirkung im Vorauflauf ECG (Echinochloa crus-galli [1]) | Herbizide Wirkung im Vorauflauf STM (Stellaria media [2]) | Herbizide Wirkung im Nachauflauf CRS (Chrysanthemum segetum [3]) | Herbizide Wirkung im Nachauflauf SIA (Sinapis arvensis [4]) | Herbizide Wirkung im Nachauflauf AS (Avena sativa [5]) | Herbizide Wirkung im Vorauflauf CRS (Chrysanthemum segetum [6]) | Herbizide Wirkung im Vorauflauf SIA (Sinapis arvensis [7]) | Herbizide Wirkung im Vorauflauf AS (Avena sativa [8]) | Herbizide Wirkung im Nachauflauf ECG (Echinochloa crus-galli [9]) | Herbizide Wirkung im Nachauflauf STM (Stellaria media [10])
1 | COC(=O)CC(OC(OC(=O)c1cc(Oc2ccc(C(F)(F)F)cc2Cl)ccc1[N+](=O)[O-])C(Cl)(Cl)Cl)C(=O)OC (centres unmarked) [compound 31] | 5 (= 80 - 100 % Wirkung bzw. Schaden) | 2 (= 20 - 40 % Wirkung bzw. Schaden) | 5 (= 80 - 100 % Wirkung bzw. Schaden) | 5 (= 80 - 100 % Wirkung bzw. Schaden) | 4 (= 60 - 80 % Wirkung bzw. Schaden) | 5 (= 80 - 100 % Wirkung bzw. Schaden) | 5 (= 80 - 100 % Wirkung bzw. Schaden) | 5 (= 80 - 100 % Wirkung bzw. Schaden) | 3 (= 40 - 60 % Wirkung bzw. Schaden) | 5 (= 80 - 100 % Wirkung bzw. Schaden)
2 | CCOC(OC(=O)c1cc(Oc2ccc(C(F)(F)F)cc2Cl)ccc1[N+](=O)[O-])C(Cl)(Cl)Cl (centres unmarked) [compound 5, 5-(2-Chlor-4-trifluormethylahenoxy)-2-nitrobenzoesäure-2,2,2-trichlor-1-ethoxyethylester] | 3 (= 40 - 60 % Wirkung bzw. Schaden) | 2 (= 20 - 40 % Wirkung bzw. Schaden) | 4 (= 60 - 80 % Wirkung bzw. Schaden) | 5 (= 80 - 100 % Wirkung bzw. Schaden) | 1 (= 0 - 20 % Wirkung bzw. Schaden) | 5 (= 80 - 100 % Wirkung bzw. Schaden) | 5 (= 80 - 100 % Wirkung bzw. Schaden) | 2 (= 20 - 40 % Wirkung bzw. Schaden) | 2 (= 20 - 40 % Wirkung bzw. Schaden) | 2 (= 20 - 40 % Wirkung bzw. Schaden)
3 | CCOC(=O)C(C)OC(OC(=O)c1cc(Oc2ccc(C(F)(F)F)cc2Cl)ccc1[N+](=O)[O-])C(Cl)(Cl)Cl (centres unmarked) [compound 23] | 5 (= 80 - 100 % Wirkung bzw. Schaden) | 5 (= 80 - 100 % Wirkung bzw. Schaden) | 5 (= 80 - 100 % Wirkung bzw. Schaden) | 5 (= 80 - 100 % Wirkung bzw. Schaden) | 1 (= 0 - 20 % Wirkung bzw. Schaden) | 5 (= 80 - 100 % Wirkung bzw. Schaden) | 5 (= 80 - 100 % Wirkung bzw. Schaden) | 5 (= 80 - 100 % Wirkung bzw. Schaden) | 2 (= 20 - 40 % Wirkung bzw. Schaden) | 5 (= 80 - 100 % Wirkung bzw. Schaden)
4 | CCOC(=O)C(C)OC(OC(=O)c1cc(Oc2c(Cl)cc(C(F)(F)F)cc2Cl)ccc1[N+](=O)[O-])C(Cl)(Cl)Cl (centres unmarked) [compound 34] | 1 (= 0 - 20 % Wirkung bzw. Schaden) | 5 (= 80 - 100 % Wirkung bzw. Schaden) | 5 (= 80 - 100 % Wirkung bzw. Schaden) | 5 (= 80 - 100 % Wirkung bzw. Schaden) | 5 (= 80 - 100 % Wirkung bzw. Schaden) | 5 (= 80 - 100 % Wirkung bzw. Schaden) | 5 (= 80 - 100 % Wirkung bzw. Schaden) | 2 (= 20 - 40 % Wirkung bzw. Schaden) | 4 (= 60 - 80 % Wirkung bzw. Schaden) | 5 (= 80 - 100 % Wirkung bzw. Schaden)
5 | CCOC(=O)COC(OC(=O)c1cc(Oc2ccc(C(F)(F)F)cc2Cl)ccc1[N+](=O)[O-])C(Cl)(Cl)Cl (centres unmarked) [compound 22] | 5 (= 80 - 100 % Wirkung bzw. Schaden) | 2 (= 20 - 40 % Wirkung bzw. Schaden) | 5 (= 80 - 100 % Wirkung bzw. Schaden) | 5 (= 80 - 100 % Wirkung bzw. Schaden) | 5 (= 80 - 100 % Wirkung bzw. Schaden) | 5 (= 80 - 100 % Wirkung bzw. Schaden) | 5 (= 80 - 100 % Wirkung bzw. Schaden) | 4 (= 60 - 80 % Wirkung bzw. Schaden) | 5 (= 80 - 100 % Wirkung bzw. Schaden) | 3 (= 40 - 60 % Wirkung bzw. Schaden)
6 | N#CCCSCCOC(OC(=O)c1cc(Oc2ccc(C(F)(F)F)cc2Cl)ccc1[N+](=O)[O-])C(Cl)(Cl)Cl (centres unmarked) [compound 9] | 4 (= 60 - 80 % Wirkung bzw. Schaden) | 3 (= 40 - 60 % Wirkung bzw. Schaden) | 4 (= 60 - 80 % Wirkung bzw. Schaden) | 5 (= 80 - 100 % Wirkung bzw. Schaden) | 1 (= 0 - 20 % Wirkung bzw. Schaden) | 5 (= 80 - 100 % Wirkung bzw. Schaden) | 4 (= 60 - 80 % Wirkung bzw. Schaden) | 4 (= 60 - 80 % Wirkung bzw. Schaden) | 2 (= 20 - 40 % Wirkung bzw. Schaden) | 0
7 | CC1(C)OCC(COC(OC(=O)c2cc(Oc3ccc(C(F)(F)F)cc3Cl)ccc2[N+](=O)[O-])C(Cl)(Cl)Cl)O1 (centres unmarked) [compound 6, 5-(2-Chlor-4-trifluormethylphenoxy)-2-nitrobenzoesäure-1-(2,2-dimethyl-1,3-dioxolan-4-yl)-methoxy-2,2,2-trichlorethylester] | 0 | 0 | 4 (= 60 - 80 % Wirkung bzw. Schaden) | 4 (= 60 - 80 % Wirkung bzw. Schaden) | 1 (= 0 - 20 % Wirkung bzw. Schaden) | 3 (= 40 - 60 % Wirkung bzw. Schaden) | 2 (= 20 - 40 % Wirkung bzw. Schaden) | 1 (= 0 - 20 % Wirkung bzw. Schaden) | 0 | 3 (= 40 - 60 % Wirkung bzw. Schaden)
8 | CCOC(=O)C(C)(C)OC(OC(=O)c1cc(Oc2ccc(C(F)(F)F)cc2Cl)ccc1[N+](=O)[O-])C(Cl)(Cl)Cl (centres unmarked) [compound 30] | 5 (= 80 - 100 % Wirkung bzw. Schaden) | 2 (= 20 - 40 % Wirkung bzw. Schaden) | 5 (= 80 - 100 % Wirkung bzw. Schaden) | 5 (= 80 - 100 % Wirkung bzw. Schaden) | 5 (= 80 - 100 % Wirkung bzw. Schaden) | 5 (= 80 - 100 % Wirkung bzw. Schaden) | 5 (= 80 - 100 % Wirkung bzw. Schaden) | 5 (= 80 - 100 % Wirkung bzw. Schaden) | 4 (= 60 - 80 % Wirkung bzw. Schaden) | 5 (= 80 - 100 % Wirkung bzw. Schaden)
